Source: ChEMBL document CHEMBL4229492, “Design, Synthesis, and Biological Evaluation of Novel 7-[(3 aS,7 aS)-3 a-Aminohexahydropyrano[3,4- c]pyrrol-2(3 H)-yl]-8-methoxyquinolines with Potent Antibacterial Activity against Respiratory Pathogens” (J Med Chem, 2018)
Converted amounts (≈) assume the structure as drawn.

What was measured:
[1] = test system: Mus musculus; experiment: Toxicity in Slc:ddY mouse assessed as induction of convulsion at 15 ug/5 uL/mouse administered intracisternally and measured over 30 mins post dose; format: organism-based; conditions: in vivo, other, 0.5 h
[2] = test system: Staphylococcus aureus; experiment: Antibacterial activity against Staphylococcus aureus SMITH after 18 hrs by two-fold microbroth dilution method; format: functional
[3] = Primary phase half life in cynomolgus monkey serum at 5 mg/kg, iv; format: ADME, organism-based, Macaca fascicularis; conditions: read-out: alphat1/2 (converted)
[4] = test system: Staphylococcus aureus; experiment: Antibacterial activity against levofloxacin and methicillin-resistant Staphylococcus aureus 890325-1 after 18 hrs by two-fold microbroth dilution method; format: functional; conditions: 890325-1, 18 h
[5] = test system: Mus musculus; experiment: Toxicity in Slc:ddY mouse assessed as induction of convulsion at 5 ug/5 uL/mouse administered intracisternally 30 mins after 400 mg/kg, po BPAA dosing and measured over 30 mins post dose; format: organism-based; conditions: in vivo, 0.5 h
[6] = test system: Klebsiella pneumoniae; experiment: Antibacterial activity against Klebsiella pneumoniae TYPE 1 after 18 hrs by two-fold microbroth dilution method; format: functional; conditions: TYPE 1, 18 h
[7] = test system: Mus musculus; experiment: Toxicity in Slc:ddY mouse assessed as induction of convulsion at 15 ug/5 uL/mouse administered intracisternally 30 mins after 400 mg/kg, po BPAA dosing and measured over 30 mins post dose; format: organism-based; conditions: in vivo, 0.5 h
[8] = test system: Escherichia coli; experiment: Antibacterial activity against Escherichia coli NIHJ after 18 hrs by two-fold microbroth dilution method; format: functional
[9] = test system: Staphylococcus aureus; experiment: Antibacterial activity against levofloxacin and methicillin-resistant Staphylococcus aureus 870307 after 18 hrs by two-fold microbroth dilution method; format: functional; conditions: Staphylococcus aureus, 870307, 18 h
[10] = test system: Mus musculus; experiment: Toxicity in Slc:ddY mouse assessed as induction of mortality at 50 ug/5 uL/mouse administered intracisternally and measured over 30 mins post dose; format: organism-based; conditions: in vivo, other, 0.5 h
[11] = test system: Staphylococcus aureus; experiment: Antibacterial activity against methicillin-resistant Staphylococcus aureus after 18 hrs by two-fold microbroth dilution method; format: functional
[12] = test system: Streptococcus pyogenes; experiment: Antibacterial activity against Streptococcus pyogenes ATCC 12344 after 18 hrs by two-fold microbroth dilution method; format: functional; conditions: ATCC 12344, 18 h
[13] = test system: Mus musculus; experiment: Toxicity in Slc:ddY mouse assessed as induction of mortality at 50 ug/5 uL/mouse administered intracisternally 30 mins after 400 mg/kg, po BPAA dosing and measured over 30 mins post dose; format: organism-based; conditions: in vivo, 0.5 h
[14] = test system: Bacillus spizizenii; experiment: Antibacterial activity against Bacillus subtilis ATCC 6633 after 18 hrs by two-fold microbroth dilution method; format: functional; conditions: ATCC 6633, 18 h
[15] = test system: Mus musculus; experiment: Toxicity in Slc:ddY mouse assessed as induction of convulsion at 5 ug/5 uL/mouse administered intracisternally and measured over 30 mins post dose; format: organism-based; conditions: in vivo, other, 0.5 h
[16] = test system: Mus musculus; experiment: Toxicity in Slc:ddY mouse assessed as induction of mortality at 5 ug/5 uL/mouse administered intracisternally 30 mins after 400 mg/kg, po BPAA dosing and measured over 30 mins post dose; format: organism-based; conditions: in vivo, 0.5 h
[17] = test system: Moraxella catarrhalis; experiment: Antibacterial activity against Moraxella catarrhalis ATCC 25238 after 18 hrs by two-fold microbroth dilution method; format: functional; conditions: ATCC 25238, 18 h
[18] = Metabolic stability in human microsomes at 1 uM assessed as compound remaining after 30 mins; format: ADME, Microsome; conditions: read-out: Stability
[19] = test system: Mus musculus; experiment: Toxicity in Slc:ddY mouse assessed as induction of mortality at 15 ug/5 uL/mouse administered intracisternally 30 mins after 400 mg/kg, po BPAA dosing and measured over 30 mins post dose; format: organism-based; conditions: in vivo, 0.5 h
[20] = test system: Escherichia coli; experiment: Antibacterial activity against quinolone-resistant Escherichia coli DNS5101 after 18 hrs by two-fold microbroth dilution method; format: functional; conditions: DNS5101, 18 h
[21] = molecular target: CYP3A4 (Homo sapiens, UniProt P08684); experiment: Inhibition of CYP3A4 in human liver microsomes at 10 uM assessed as remaining activity by measuring 1'-hydroxylation of midazolam after 30 mins; format: ADME; conditions: probe midazolam (1'-hydroxylation), read-out: Activity
CYP3A4, sequence (P08684 whole entry): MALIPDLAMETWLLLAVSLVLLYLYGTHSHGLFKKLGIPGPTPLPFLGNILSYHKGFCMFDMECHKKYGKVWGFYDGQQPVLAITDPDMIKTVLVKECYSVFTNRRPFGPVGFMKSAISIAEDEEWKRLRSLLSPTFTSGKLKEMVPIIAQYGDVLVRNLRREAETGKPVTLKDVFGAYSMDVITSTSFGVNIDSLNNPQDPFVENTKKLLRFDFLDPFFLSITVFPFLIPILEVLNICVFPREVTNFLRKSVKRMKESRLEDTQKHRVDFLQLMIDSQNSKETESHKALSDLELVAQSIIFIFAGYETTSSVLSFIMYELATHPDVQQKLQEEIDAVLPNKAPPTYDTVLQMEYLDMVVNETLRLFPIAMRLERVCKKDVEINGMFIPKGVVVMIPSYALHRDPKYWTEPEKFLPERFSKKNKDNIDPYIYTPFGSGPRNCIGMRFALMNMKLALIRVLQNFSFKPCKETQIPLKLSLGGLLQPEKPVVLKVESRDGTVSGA

[22] = AUC (0 to 8 hrs) in cynomolgus monkey serum at 5 mg/kg, iv; format: ADME, organism-based, Macaca fascicularis; parameters: dose 5 mg/kg, time < 8 hr, route intravenous
[23] = Cmax in Crj:CD rat at 5 mg/kg, po; format: ADME, organism-based; parameters: dose 5 mg/kg, route oral; conditions: in vivo
[24] = test system: Streptococcus pneumoniae; experiment: Antibacterial activity against penicillin-susceptible Streptococcus pneumoniae J41 after 18 hrs by two-fold microbroth dilution method; format: functional; conditions: J41, 18 h
[25] = molecular target: Albumin (Homo sapiens, UniProt P02768); experiment: Binding affinity to human serum albumin after 60 mins at 37 degC by ultrafiltration-based LC-MS analysis; format: ADME; conditions: read-out: PB (converted)
Albumin, sequence (P02768 whole entry): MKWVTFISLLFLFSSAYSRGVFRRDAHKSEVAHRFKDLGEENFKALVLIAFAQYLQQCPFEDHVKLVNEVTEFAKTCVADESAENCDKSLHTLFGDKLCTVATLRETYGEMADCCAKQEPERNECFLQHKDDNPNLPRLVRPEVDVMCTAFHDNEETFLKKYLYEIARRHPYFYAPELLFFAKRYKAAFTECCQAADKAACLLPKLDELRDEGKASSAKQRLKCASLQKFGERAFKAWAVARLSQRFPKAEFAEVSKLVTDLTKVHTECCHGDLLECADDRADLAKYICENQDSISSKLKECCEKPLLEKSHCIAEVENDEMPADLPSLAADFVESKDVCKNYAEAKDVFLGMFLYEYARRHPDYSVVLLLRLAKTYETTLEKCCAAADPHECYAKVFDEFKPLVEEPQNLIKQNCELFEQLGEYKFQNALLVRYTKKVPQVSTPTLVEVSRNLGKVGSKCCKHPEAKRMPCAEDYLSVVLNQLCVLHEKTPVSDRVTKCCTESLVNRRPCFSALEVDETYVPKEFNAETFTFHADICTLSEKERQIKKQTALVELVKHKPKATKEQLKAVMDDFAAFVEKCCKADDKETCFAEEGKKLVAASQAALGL

[26] = test system: Streptococcus pneumoniae; experiment: Antibacterial activity against penicillin-resistant Streptococcus pneumoniae 033806 after 18 hrs by two-fold microbroth dilution method; format: functional; conditions: Streptococcus pneumoniae, 033806, 18 h
[27] = test system: Mus musculus; experiment: Toxicity in Slc:ddY mouse assessed as induction of mortality at 5 ug/5 uL/mouse administered intracisternally and measured over 30 mins post dose; format: organism-based; conditions: in vivo, other, 0.5 h
[28] = test system: Mus musculus; experiment: Toxicity in Slc:ddY mouse assessed as induction of mortality at 15 ug/5 uL/mouse administered intracisternally and measured over 30 mins post dose; format: organism-based; conditions: in vivo, other, 0.5 h
[29] = molecular target: T1, hERG (KCNH2) (Homo sapiens, UniProt Q12809); experiment: Inhibition of human ERG expressed in CHOK1 cells at 100 uM; format: cell-based; conditions: CHOK1 cells that express human ERG
T1 sequence (Q12809 whole entry): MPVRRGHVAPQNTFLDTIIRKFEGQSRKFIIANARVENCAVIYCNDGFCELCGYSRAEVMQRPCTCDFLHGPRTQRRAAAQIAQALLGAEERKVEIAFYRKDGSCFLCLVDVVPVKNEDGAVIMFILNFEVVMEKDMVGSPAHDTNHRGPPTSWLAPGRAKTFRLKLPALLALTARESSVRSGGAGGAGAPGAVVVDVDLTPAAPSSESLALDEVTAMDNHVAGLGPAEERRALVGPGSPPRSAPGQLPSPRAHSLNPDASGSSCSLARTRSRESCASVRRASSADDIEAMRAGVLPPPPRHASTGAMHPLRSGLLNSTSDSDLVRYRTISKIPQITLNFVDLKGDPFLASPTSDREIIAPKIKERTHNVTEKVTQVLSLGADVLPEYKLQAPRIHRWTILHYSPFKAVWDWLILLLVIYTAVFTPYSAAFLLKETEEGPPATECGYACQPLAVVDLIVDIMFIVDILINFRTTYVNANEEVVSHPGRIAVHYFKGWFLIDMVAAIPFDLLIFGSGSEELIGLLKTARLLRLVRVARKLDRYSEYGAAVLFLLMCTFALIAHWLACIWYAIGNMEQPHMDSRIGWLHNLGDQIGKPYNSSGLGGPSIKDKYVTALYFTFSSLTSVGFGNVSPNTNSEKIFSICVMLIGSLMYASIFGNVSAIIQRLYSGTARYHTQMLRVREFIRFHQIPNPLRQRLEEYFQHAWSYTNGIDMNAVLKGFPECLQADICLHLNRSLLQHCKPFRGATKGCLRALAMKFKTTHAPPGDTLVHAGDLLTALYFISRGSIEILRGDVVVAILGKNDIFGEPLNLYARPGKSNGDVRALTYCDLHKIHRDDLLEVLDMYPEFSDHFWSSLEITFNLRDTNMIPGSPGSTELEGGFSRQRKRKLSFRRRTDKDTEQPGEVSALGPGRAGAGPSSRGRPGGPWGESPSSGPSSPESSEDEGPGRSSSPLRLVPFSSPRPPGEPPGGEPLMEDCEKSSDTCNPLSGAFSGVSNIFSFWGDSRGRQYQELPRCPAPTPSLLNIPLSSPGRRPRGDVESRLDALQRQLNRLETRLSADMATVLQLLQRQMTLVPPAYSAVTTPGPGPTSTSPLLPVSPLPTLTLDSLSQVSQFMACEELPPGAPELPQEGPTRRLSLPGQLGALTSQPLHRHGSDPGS

[30] = test system: Streptococcus pneumoniae; experiment: Antibacterial activity against penicillin-susceptible Streptococcus pneumoniae J24 after 18 hrs by two-fold microbroth dilution method; format: functional; conditions: J24, 18 h
[31] = Drug recovery in cynomolgus monkey urine at 5 mg/kg, iv after 24 hrs; format: ADME, organism-based, Macaca fascicularis; conditions: read-out: Drug recovery
[32] = AUC (0 to 8 hrs) in Crj:CD rat at 5 mg/kg, po; format: ADME, organism-based; parameters: time < 8 hr, dose 5 mg/kg, route oral; conditions: in vivo
[33] = Cmin in cynomolgus monkey serum at 5 mg/kg, iv after 5 mins; format: ADME, organism-based, Macaca fascicularis; conditions: read-out: Cmin
[34] = molecular target: T1, hERG (KCNH2); experiment: Inhibition of human ERG expressed in CHOK1 cells at 30 uM; format: cell-based; conditions: CHOK1 cells that express human ERG
[35] = test system: Pseudomonas aeruginosa; experiment: Antibacterial activity against Pseudomonas aeruginosa PAO1 after 18 hrs by two-fold microbroth dilution method; format: functional; conditions: PAO1, 18 h
[36] = test system: Haemophilus influenzae; experiment: Antibacterial activity against Haemophilus influenzae ATCC 49247 after 18 hrs by two-fold microbroth dilution method; format: functional; conditions: ATCC 49247, 18 h
[37] = test system: Enterococcus faecalis; experiment: Antibacterial activity against Enterococcus faecalis ATCC 19433 after 18 hrs by two-fold microbroth dilution method; format: functional; conditions: ATCC 19433, 18 h
[38] = test system: Escherichia coli; experiment: Antibacterial activity against Escherichia coli 5-037042'98 harboring gyrase A Asp87Gly mutation after 18 hrs by two-fold microbroth dilution method; format: functional; conditions: 5-037042'98, 18 h

Compound: COc1c(N2C[C@@H]3CCOC[C@@]3(N)C2)c(F)cc2c(=O)c(C(=O)O)cn([C@@H]3C[C@@H]3F)c12
- Activity [1]: Non-Toxic
- MIC [2]: 0.006 µg/mL (≈ 0.0138 µM)
- half-life [3]: 3.5 h
- MIC [4]: 0.2 µg/mL (≈ 0.459 µM)
- Activity [5]: Non-Toxic
- MIC [6]: 0.05 µg/mL (≈ 0.115 µM)
- Activity [7]: Non-Toxic
- MIC [8]: 0.006 µg/mL (≈ 0.0138 µM)
- MIC [9]: 0.2 µg/mL (≈ 0.459 µM)
- Activity [10]: Non-Toxic
- MIC [11]: 0.008 to 8 µg/mL
- MIC50 ([11]; Staphylococcus aureus, 18 h): 0.015 µg/mL (≈ 0.0344 µM)
- MIC90 ([11]; Staphylococcus aureus, 18 h): 0.5 µg/mL (≈ 1.15 µM)
- MIC [12]: 0.05 µg/mL (≈ 0.115 µM)
- Activity [13]: Non-Toxic
- MIC [14]: 0.006 µg/mL (≈ 0.0138 µM)
- Activity [15]: Non-Toxic
- Activity [16]: Non-Toxic
- MIC [17]: 0.025 µg/mL (≈ 0.0574 µM)
- remaining at 0.5 h, 1 µM [18]: 100%
- Activity [19]: Non-Toxic
- MIC [20]: 1.56 µg/mL (≈ 3.58 µM)
- activity at 0.5 h, 10 µM [21]: 97.4%
- AUC(0-t) at 8 h [22]: 22900 ng·h/mL
- Cmax [23]: 880 ng/mL
- MIC [24]: 0.05 µg/mL (≈ 0.115 µM)
- fraction unbound at 1 h [25]: 1
- MIC [26]: 0.12 µg/mL (≈ 0.276 µM)
- Activity [27]: Non-Toxic
- Activity [28]: Non-Toxic
- inhibition at 100 µM [29]: -2.5%
- MIC [30]: 0.1 µg/mL (≈ 0.23 µM)
- dose excreted at 24 h [31]: 65%
- AUC(0-t) at 8 h [32]: 3140 ng·h/mL
- concentration at 5 min [33]: 7000 ng/mL
- inhibition at 30 µM [34]: -2.2%
- MIC [35]: 0.78 µg/mL (≈ 1.79 µM)
- MIC [36]: 0.006 µg/mL (≈ 0.0138 µM)
- MIC [37]: 0.2 µg/mL (≈ 0.459 µM)
- MIC [38]: 0.05 µg/mL (≈ 0.115 µM)
